According to article PMC3399817 (PLoS ONE, 2012):

Assays:
Test in all cases: KINOMEscan
Format in all cases: binding
AAK1 = molecular target: T1, AAK1 (Homo sapiens, UniProt Q2M2I8); conditions: AAK1, 1 uM
T1 construct: purchased Ambit KINOMEscan (DiscoverX)
Protocol: (§1) First, we used Ambit's KINOMEscan™ technology to identify those kinases that are inhibited for substrate binding by the compounds, all assayed at 1 μM. Second, we used Invitrogen's SelectScreen® Biochemical Kinase Profiling Service to determine the in vitro IC50s for the compounds against specific kinases.

[1] = molecular target: T2, ABL1(E255K)-phosphorylated (Homo sapiens, UniProt P00519, E255K); conditions: 1 uM
T2 construct: purchased Ambit KINOMEscan (DiscoverX)
Protocol: as §1

ABL2 = molecular target: T3, ABL2 (Homo sapiens, UniProt P42684); conditions: ABL2, 1 uM
T3 construct: purchased Ambit KINOMEscan (DiscoverX)
Protocol: as §1

AMPK-alpha2 = molecular target: T4, AMPK-alpha2 (Homo sapiens, UniProt P54646); conditions: AMPK-alpha2, 1 uM
T4 construct: purchased Ambit KINOMEscan (DiscoverX)
Protocol: as §1

ASK2 = molecular target: T5, ASK2 (Homo sapiens, UniProt O95382); conditions: ASK2, 1 uM
T5 construct: purchased Ambit KINOMEscan (DiscoverX)
Protocol: as §1

CSNK1G1 = molecular target: T6, CSNK1G1 (Homo sapiens, UniProt Q9HCP0); conditions: CSNK1G1, 1 uM
T6 construct: purchased Ambit KINOMEscan (DiscoverX)
Protocol: as §1

DRAK1 = molecular target: T7, DRAK1 (Homo sapiens, UniProt Q9UEE5); conditions: DRAK1, 1 uM
T7 construct: purchased Ambit KINOMEscan (DiscoverX)
Protocol: as §1

DRAK2 = molecular target: T8, DRAK2 (Homo sapiens, UniProt O94768); conditions: DRAK2, 1 uM
T8 construct: purchased Ambit KINOMEscan (DiscoverX)
Protocol: as §1

EPHA5 = molecular target: T9, EPHA5 (Homo sapiens, UniProt P54756); conditions: EPHA5, 1 uM
T9 construct: purchased Ambit KINOMEscan (DiscoverX)
Protocol: as §1

ERBB3 = molecular target: T10, ERBB3 (Homo sapiens, UniProt P21860); conditions: ERBB3, 1 uM
T10 construct: purchased Ambit KINOMEscan (DiscoverX)
Protocol: as §1

ERK5 = molecular target: T11, ERK5 (Homo sapiens, UniProt Q13164); conditions: ERK5, 1 uM
T11 construct: purchased Ambit KINOMEscan (DiscoverX)
Protocol: as §1

FGFR2 = molecular target: T12, FGFR2 (Homo sapiens, UniProt P21802); conditions: FGFR2, 1 uM
T12 construct: purchased Ambit KINOMEscan (DiscoverX)
Protocol: as §1

FRK = molecular target: T13, FRK (Homo sapiens, UniProt P42685); conditions: 1 uM
T13 construct: purchased Ambit KINOMEscan (DiscoverX)
Protocol: as §1

INSR = molecular target: T14, INSR (Homo sapiens, UniProt P06213); conditions: 1 uM
T14 construct: purchased Ambit KINOMEscan (DiscoverX)
Protocol: as §1

IRAK3 = molecular target: T15, IRAK3 (Homo sapiens, UniProt Q9Y616); conditions: IRAK3, 1 uM
T15 construct: purchased Ambit KINOMEscan (DiscoverX)
Protocol: as §1

MAP4K5 = molecular target: T16, MAP4K5 (Homo sapiens, UniProt Q9Y4K4); conditions: MAP4K5, 1 uM
T16 construct: purchased Ambit KINOMEscan (DiscoverX)
Protocol: as §1

MINK = molecular target: T17, MINK (Homo sapiens, UniProt Q8N4C8); conditions: 1 uM
T17 construct: purchased Ambit KINOMEscan (DiscoverX)
Protocol: as §1

PHKG2 = molecular target: T18, PHKG2 (Homo sapiens, UniProt P15735); conditions: PHKG2, 1 uM
T18 construct: purchased Ambit KINOMEscan (DiscoverX)
Protocol: as §1

PIK3C2B = molecular target: T19, PIK3C2B (Homo sapiens, UniProt O00750); conditions: 1 uM
T19 construct: purchased Ambit KINOMEscan (DiscoverX)
Protocol: as §1

PIK3CA(H1047Y) = molecular target: T20, PIK3CA(H1047Y) (Homo sapiens, UniProt P42336, H1047Y); conditions: 1 uM
T20 construct: purchased Ambit KINOMEscan (DiscoverX)
Protocol: as §1

PIK3CA(M1043I) = molecular target: T21, PIK3CA(M1043I) (Homo sapiens, UniProt P42336, M1043I); conditions: 1 uM
T21 construct: purchased Ambit KINOMEscan (DiscoverX)
Protocol: as §1

PKAC-alpha = molecular target: T22, PKAC-alpha (Homo sapiens, UniProt P17612); conditions: 1 uM
T22 construct: purchased Ambit KINOMEscan (DiscoverX)
Protocol: as §1

PLK3 = molecular target: T23, PLK3 (Homo sapiens, UniProt Q9H4B4); conditions: PLK3, 1 uM
T23 construct: purchased Ambit KINOMEscan (DiscoverX)
Protocol: as §1

RIPK4 = molecular target: T24, RIPK4 (Homo sapiens, UniProt P57078); conditions: RIPK4, 1 uM
T24 construct: purchased Ambit KINOMEscan (DiscoverX)
Protocol: as §1

SRPK3 = molecular target: T25, SRPK3 (Homo sapiens, UniProt Q9UPE1); conditions: SRPK3, 1 uM
T25 construct: purchased Ambit KINOMEscan (DiscoverX)
Protocol: as §1

TAOK1 = molecular target: T26, TAOK1 (Homo sapiens, UniProt Q7L7X3); conditions: TAOK1, 1 uM
T26 construct: purchased Ambit KINOMEscan (DiscoverX)
Protocol: as §1

TESK1 = molecular target: T27, TESK1 (Homo sapiens, UniProt Q15569); conditions: TESK1, 1 uM
T27 construct: purchased Ambit KINOMEscan (DiscoverX)
Protocol: as §1

p38-alpha = molecular target: T28, p38-alpha (Homo sapiens, UniProt Q16539); conditions: 1 uM
T28 construct: purchased Ambit KINOMEscan (DiscoverX)
Protocol: as §1

p38-beta = molecular target: T29, p38-beta (Homo sapiens, UniProt Q15759); conditions: 1 uM
T29 construct: purchased Ambit KINOMEscan (DiscoverX)
Protocol: as §1

T1 sequence (Q2M2I8 whole entry): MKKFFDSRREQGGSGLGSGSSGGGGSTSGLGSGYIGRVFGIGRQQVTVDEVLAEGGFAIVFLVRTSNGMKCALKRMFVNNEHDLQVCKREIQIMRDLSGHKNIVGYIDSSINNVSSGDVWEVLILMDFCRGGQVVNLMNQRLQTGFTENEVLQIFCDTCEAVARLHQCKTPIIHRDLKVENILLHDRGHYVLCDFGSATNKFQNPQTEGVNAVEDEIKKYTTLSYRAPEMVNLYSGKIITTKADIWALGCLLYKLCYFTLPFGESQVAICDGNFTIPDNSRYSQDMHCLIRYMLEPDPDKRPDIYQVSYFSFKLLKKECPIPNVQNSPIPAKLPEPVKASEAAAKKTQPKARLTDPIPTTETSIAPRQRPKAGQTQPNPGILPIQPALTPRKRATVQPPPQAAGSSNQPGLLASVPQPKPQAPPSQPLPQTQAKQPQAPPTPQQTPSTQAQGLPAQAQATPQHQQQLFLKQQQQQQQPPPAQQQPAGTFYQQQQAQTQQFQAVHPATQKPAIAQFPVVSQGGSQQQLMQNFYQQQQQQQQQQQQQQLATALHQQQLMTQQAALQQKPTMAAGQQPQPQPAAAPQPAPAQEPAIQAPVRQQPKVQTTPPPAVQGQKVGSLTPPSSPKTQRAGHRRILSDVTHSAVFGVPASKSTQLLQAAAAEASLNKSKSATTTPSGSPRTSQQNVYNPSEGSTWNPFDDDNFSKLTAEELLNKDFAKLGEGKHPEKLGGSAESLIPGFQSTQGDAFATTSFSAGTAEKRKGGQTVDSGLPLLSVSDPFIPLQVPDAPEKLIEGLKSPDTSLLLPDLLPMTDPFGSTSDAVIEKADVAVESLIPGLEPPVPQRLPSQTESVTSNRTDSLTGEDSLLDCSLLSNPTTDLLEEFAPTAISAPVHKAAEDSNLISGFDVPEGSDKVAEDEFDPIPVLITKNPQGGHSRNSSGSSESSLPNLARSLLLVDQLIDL
T4 sequence (P54646 whole entry): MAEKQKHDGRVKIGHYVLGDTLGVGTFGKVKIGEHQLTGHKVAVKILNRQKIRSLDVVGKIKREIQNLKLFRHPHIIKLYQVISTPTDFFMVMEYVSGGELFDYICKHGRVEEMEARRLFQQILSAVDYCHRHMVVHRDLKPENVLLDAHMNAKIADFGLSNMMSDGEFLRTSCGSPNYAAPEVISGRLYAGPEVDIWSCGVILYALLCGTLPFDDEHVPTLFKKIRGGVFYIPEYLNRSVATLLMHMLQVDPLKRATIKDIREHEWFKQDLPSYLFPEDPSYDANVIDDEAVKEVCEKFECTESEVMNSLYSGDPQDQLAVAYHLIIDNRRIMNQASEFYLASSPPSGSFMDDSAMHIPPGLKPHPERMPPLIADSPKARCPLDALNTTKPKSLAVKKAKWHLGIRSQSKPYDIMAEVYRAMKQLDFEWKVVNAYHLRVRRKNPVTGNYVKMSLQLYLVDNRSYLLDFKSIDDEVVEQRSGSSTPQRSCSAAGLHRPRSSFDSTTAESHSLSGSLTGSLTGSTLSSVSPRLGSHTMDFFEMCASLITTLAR
T25 sequence (Q9UPE1 whole entry): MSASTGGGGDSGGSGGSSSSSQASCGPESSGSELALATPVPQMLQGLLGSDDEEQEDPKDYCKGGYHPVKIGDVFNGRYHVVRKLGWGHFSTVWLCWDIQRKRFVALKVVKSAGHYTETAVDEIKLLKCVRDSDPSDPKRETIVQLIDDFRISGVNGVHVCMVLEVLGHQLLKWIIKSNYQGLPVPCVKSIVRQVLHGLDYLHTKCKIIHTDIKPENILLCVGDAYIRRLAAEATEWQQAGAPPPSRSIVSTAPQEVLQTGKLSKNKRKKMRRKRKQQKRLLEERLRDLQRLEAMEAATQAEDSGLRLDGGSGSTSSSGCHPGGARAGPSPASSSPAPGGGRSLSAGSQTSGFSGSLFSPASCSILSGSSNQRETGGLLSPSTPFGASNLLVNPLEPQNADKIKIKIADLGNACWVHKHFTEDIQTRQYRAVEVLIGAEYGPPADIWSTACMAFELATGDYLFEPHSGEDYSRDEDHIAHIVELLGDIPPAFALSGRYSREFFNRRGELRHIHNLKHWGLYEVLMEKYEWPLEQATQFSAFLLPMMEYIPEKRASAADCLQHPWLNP
T11 sequence (Q13164 whole entry): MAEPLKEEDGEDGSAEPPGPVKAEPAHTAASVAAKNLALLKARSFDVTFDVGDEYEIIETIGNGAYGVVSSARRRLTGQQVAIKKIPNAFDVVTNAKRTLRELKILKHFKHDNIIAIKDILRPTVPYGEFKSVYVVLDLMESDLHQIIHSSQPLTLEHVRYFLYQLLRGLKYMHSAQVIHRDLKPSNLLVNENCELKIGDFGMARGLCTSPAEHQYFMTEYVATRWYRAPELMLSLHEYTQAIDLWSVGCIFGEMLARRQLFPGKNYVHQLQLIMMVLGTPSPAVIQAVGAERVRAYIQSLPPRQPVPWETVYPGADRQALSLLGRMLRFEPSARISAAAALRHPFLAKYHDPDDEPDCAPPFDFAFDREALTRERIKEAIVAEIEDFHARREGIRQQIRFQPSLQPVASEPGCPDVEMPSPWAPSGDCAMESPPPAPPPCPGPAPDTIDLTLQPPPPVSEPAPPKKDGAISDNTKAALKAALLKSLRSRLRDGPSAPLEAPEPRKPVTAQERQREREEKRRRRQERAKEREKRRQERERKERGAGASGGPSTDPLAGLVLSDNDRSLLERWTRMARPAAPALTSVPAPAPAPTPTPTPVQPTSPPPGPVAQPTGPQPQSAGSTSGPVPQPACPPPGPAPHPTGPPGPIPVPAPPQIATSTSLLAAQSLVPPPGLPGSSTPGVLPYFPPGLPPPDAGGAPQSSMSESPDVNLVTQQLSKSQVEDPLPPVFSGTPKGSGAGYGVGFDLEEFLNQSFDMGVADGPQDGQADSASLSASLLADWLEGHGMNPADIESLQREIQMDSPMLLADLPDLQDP
T29 sequence (Q15759 whole entry): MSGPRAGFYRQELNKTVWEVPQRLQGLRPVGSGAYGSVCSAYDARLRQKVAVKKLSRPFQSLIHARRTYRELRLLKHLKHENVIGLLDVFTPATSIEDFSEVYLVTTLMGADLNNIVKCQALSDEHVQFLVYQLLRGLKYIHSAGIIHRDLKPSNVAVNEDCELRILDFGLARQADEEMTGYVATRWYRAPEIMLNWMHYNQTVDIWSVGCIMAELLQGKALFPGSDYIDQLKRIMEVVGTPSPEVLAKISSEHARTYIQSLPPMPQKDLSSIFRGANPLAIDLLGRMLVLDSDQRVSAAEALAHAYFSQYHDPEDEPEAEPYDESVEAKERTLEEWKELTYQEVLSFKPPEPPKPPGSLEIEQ
T3 sequence (P42684 whole entry): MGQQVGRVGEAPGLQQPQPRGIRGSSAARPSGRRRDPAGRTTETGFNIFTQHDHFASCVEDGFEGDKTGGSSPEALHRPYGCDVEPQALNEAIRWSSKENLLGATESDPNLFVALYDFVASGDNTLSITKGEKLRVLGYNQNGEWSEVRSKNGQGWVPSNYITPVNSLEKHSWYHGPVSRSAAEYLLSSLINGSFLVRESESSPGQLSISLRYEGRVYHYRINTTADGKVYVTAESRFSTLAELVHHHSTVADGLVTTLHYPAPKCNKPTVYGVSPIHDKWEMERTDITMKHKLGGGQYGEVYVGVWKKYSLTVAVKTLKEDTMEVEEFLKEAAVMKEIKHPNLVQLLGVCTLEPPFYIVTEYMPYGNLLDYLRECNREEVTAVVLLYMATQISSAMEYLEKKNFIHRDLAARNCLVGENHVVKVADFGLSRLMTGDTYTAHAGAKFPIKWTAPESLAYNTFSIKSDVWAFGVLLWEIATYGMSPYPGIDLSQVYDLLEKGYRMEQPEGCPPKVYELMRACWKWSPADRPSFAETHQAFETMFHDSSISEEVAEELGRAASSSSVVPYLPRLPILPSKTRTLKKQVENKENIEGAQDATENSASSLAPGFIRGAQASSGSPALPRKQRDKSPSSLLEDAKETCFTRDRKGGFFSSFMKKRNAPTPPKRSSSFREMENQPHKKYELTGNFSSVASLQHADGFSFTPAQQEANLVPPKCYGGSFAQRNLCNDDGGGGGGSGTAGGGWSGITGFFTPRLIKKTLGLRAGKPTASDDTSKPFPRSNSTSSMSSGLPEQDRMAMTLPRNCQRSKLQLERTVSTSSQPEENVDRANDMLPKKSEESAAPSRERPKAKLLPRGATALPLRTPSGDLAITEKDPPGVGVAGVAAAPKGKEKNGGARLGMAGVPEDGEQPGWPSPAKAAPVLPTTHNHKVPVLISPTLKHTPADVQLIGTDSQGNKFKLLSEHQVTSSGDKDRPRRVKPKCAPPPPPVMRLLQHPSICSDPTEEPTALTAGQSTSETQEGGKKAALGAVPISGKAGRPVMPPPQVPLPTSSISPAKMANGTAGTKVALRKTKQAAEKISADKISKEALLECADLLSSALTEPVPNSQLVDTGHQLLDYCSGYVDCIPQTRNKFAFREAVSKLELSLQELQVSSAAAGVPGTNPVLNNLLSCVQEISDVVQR
T18 sequence (P15735 whole entry): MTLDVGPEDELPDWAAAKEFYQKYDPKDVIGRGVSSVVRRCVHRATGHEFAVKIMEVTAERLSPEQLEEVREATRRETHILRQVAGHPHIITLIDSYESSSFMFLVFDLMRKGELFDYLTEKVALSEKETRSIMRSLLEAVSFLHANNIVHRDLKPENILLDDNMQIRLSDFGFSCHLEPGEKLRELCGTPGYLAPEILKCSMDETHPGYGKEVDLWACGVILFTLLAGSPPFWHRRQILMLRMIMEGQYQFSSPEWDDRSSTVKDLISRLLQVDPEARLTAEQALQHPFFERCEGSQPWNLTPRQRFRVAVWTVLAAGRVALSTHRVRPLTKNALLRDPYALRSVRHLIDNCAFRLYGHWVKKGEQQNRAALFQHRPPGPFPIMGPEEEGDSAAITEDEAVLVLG

SMILES | % binding compared to no inhibitor control (AAK1) | % binding compared to no inhibitor control [1] | % binding compared to no inhibitor control (ABL2) | % binding compared to no inhibitor control (AMPK-alpha2) | % binding compared to no inhibitor control (ASK2) | % binding compared to no inhibitor control (CSNK1G1) | % binding compared to no inhibitor control (DRAK1) | % binding compared to no inhibitor control (DRAK2) | % binding compared to no inhibitor control (EPHA5) | % binding compared to no inhibitor control (ERBB3) | % binding compared to no inhibitor control (ERK5) | % binding compared to no inhibitor control (FGFR2) | % binding compared to no inhibitor control (FRK) | % binding compared to no inhibitor control (INSR) | % binding compared to no inhibitor control (IRAK3) | % binding compared to no inhibitor control (MAP4K5) | % binding compared to no inhibitor control (MINK) | % binding compared to no inhibitor control (PHKG2) | % binding compared to no inhibitor control (PIK3C2B) | % binding compared to no inhibitor control (PIK3CA(H1047Y)) | also measured
COc1ccc(-c2cc3nccn3c(Nc3ncccc3C(N)=O)n2)cc1OC.Cl.Cl [BAY61-3606, 2-[7-(3,4-dimethoxyphenyl)-imidazo [1,2-c]pyrimidin-5-ylamino] nicotinamide dihydrochloride, reference compound] | 1.6% | 100% | 95% | 83% | 81% | 84% | 57% | 15% | 77% | 100% | 87% | 100% | 100% | 60% | 16% | 80% | 62% | 26% | 60% | 80% | % binding compared to no inhibitor control (PIK3CA(M1043I)): 80%; % binding compared to no inhibitor control (PKAC-alpha): 90%; % binding compared to no inhibitor control (PLK3): 37%; % binding compared to no inhibitor control (RIPK4): 19%; % binding compared to no inhibitor control (SRPK3): 74%; % binding compared to no inhibitor control (TAOK1): 95%; % binding compared to no inhibitor control (TESK1): 90%; % binding compared to no inhibitor control (p38-alpha): 100%; % binding compared to no inhibitor control (p38-beta): 100%
COc1ccccc1Nc1nc(-c2ccc(OC)c(OC)c2)cc2nccn12 [BAY derivative 6] | 52% | 60% | 93% | 100% | 100% | 94% | 100% | 100% | 100% | 87% | 100% | 83% | 84% | 99% | 57% | 100% | 100% | 100% | 100% | 100% | % binding compared to no inhibitor control (PIK3CA(M1043I)): 100%; % binding compared to no inhibitor control (PKAC-alpha): 72%; % binding compared to no inhibitor control (PLK3): 100%; % binding compared to no inhibitor control (RIPK4): 93%; % binding compared to no inhibitor control (SRPK3): 100%; % binding compared to no inhibitor control (TAOK1): 100%; % binding compared to no inhibitor control (TESK1): 100%; % binding compared to no inhibitor control (p38-alpha): 95%; % binding compared to no inhibitor control (p38-beta): 80%
